Drawing on patent publication US20240218022A1, “ANTI-VISTA MACROCYCLIC PEPTIDES AND COMPOSITIONS” (BRISTOL-MYERS SQUIBB COMPANY, priority 2022, published 2024), this text covers IC50 for 13 compounds.

This experiment concerns the target T1, mouse VISTA (mVISTA) (Mus musculus, UniProt Q9D659).
T1 construct: expressed in transfected cells; host or cells: Human embryonic kidney 293T cells
T1 sequence (Q9D659 33-308): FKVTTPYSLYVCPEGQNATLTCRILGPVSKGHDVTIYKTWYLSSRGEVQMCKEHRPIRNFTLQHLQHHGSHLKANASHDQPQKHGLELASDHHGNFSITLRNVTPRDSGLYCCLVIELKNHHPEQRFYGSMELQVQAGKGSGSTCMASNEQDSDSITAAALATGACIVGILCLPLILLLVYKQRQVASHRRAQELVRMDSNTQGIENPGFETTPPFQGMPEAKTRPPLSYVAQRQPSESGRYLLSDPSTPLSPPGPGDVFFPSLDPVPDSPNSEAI
Nature of the experiment: Cell-Based Binding High-Content Assay For mVISTA (HC CBA mVISTA). To be noted: cell-based binding high-content assay; read-out: HC CBA miPrISTA IC50. As to the method: Cell-Based Binding High-Content Assay For mVISTA
Human embryonic kidney 293T cells (293T) expressing mouse VISTA (mVISTA) were used for the assessment of compounds competing with the binding of a biotinylated peptide. Cryopreserved cells were thawed in a 37° C. water bath and incubated overnight at a 37° C./5% CO2 incubator in assay culture media DMEM (Life Technologies Inc. Cat. No. 11995-126) supplemented with 10% (v/v) FBS (Sigma, Cat. No. F4135), 1× Penicillin/Streptomycin (Life Technologies Inc. Cat. No. 15140-122). Cells were harvested, washed and resuspended in DMEM media […]. To test compounds under “no-wash” condition, cells were seeded into PDL-coated 384 well plates (Corning, Cat. No. 356663) at 4,000 cells/20 μL. After incubating the cell plates for two hours at a 37° C./5% CO2 incubator, 125 nL of test compound was added using an ECHO. Alternatively, to test compounds under “wash” condition, test compounds were added first, followed by addition of 20 μL cells at a density of 4000 cells/well. After incubation for an hour, the media was removed, followed by addition of 20 μL of fresh media ( ), and plates were then incubated for another hour. To plates either under “no wash” or “wash” condition, the biotinylated peptide was added to a final concentration of 2 nM, and plates were incubated at room temperature for 30 minutes. Fifteen (15) μL of Alexa 647 conjugated Streptavidin (Life Tech, Cat. No. S21374), suspended at 2 μg/ml in media, was added to the assay plate and incubate for 30 minutes. Cells were fixed by adding 15 μL of formaldehyde at a final concentration of 8% (w/v) (Sigma Cat. No. 252549), 20 μg/mL Hoechst (Thermo Scientific Cat. No. 62249) in PBS for 10 minutes at room temperature. The plates were washed 3 times in dPBS, sealed, and read on a CellInsight NXT High Content Screening Platform IC903000 (Thermo Scientific). The 50% effective concentration (IC50) was calculated using the four-parameter logistic formula y=A+((B−A)/(1+((C/x)^D))), where A and B denote minimal and maximal % inhibition, respectively, C is the EC50, D is hill slope and x represent compound concentration.
In the case of `CCCCCCN1CC(=O)N[C@@H](Cc2ccc(O)cc2)C(=O)N[C@@H](CCCC)C(=O)N[C@@H](CC(N)=O)C(=O)N[C@@H](CCCNC(=N)N)C(=O)N[C@@H](CC(C)C)C(=O)N[C@@H](CCCCC)C(=O)N2CCC[C@H]2C(=O)N[C@@H](C(C)C)C(=O)N[C@@H](CC(=O)O)C(=O)N[C@H](C(=O)NCCOCCOCC(=O)N[C@@H](CC(=O)O)C(=O)NCCOCCOCC(=O)NCCCCCCCCCCC(=O)O)CSCC(=O)N[C@@H](Cc2cccc(C)c2)C(=O)N[C@@H](Cc2c[nH]c3ccccc23)C(=O)N[C@@H](CC(=O)O)C1=O` (stereo in doubt) [compound 2286], the IC50 turned out to be 0.0253 µM. The figure for `CCCCCCN1CC(=O)N[C@@H](Cc2ccc(O)cc2)C(=O)N[C@@H](C(C)C)C(=O)NCC(=O)N[C@@H](CCCNC(=N)N)C(=O)N[C@@H](CC(C)C)C(=O)N[C@@H](CCCCC)C(=O)N2CCC[C@H]2C(=O)N[C@@H](C(C)C)C(=O)N[C@@H](CC(=O)O)C(=O)N[C@H](C(=O)NCCOCCOCC(=O)N[C@@H](CC(=O)O)C(=O)NCCOCCOCC(=O)NCCCCCCCCCCC(=O)O)CSCC(=O)N[C@@H](Cc2ccc3ccccc3c2)C(=O)N[C@@H](Cc2ccc(O)cc2)C(=O)N[C@@H](CC(=O)O)C1=O` (stereo in doubt) [compound 2287] is 0.0216 µM; for `CCCCCCN1CC(=O)N[C@@H](Cc2ccc(O)cc2)C(=O)N[C@@H](CCCC)C(=O)N[C@@H](CC(N)=O)C(=O)N[C@@H](CCCNC(=N)N)C(=O)N[C@@H](CC(C)C)C(=O)N[C@@H](CCCCC)C(=O)N2CCC[C@H]2C(=O)N[C@@H](C(C)C)C(=O)N[C@@H](CO)C(=O)N[C@H](C(=O)NCCOCCOCC(=O)N[C@@H](CC(=O)O)C(=O)NCCOCCOCC(=O)NCCCCCCCCCCC(=O)O)CSCC(=O)N[C@@H](Cc2ccc3ccccc3c2)C(=O)N[C@@H](Cc2ccc(O)cc2)C(=O)N[C@@H](CC(=O)O)C1=O` (stereo in doubt) [compound 2288] it is 0.0086 µM. The figure for `CCCCCCN1CC(=O)N[C@@H](Cc2ccc(O)cc2)C(=O)N[C@@H](CC(C)C)C(=O)N[C@@H](CC(N)=O)C(=O)N[C@@H](CCCNC(=N)N)C(=O)N[C@@H](CC(C)C)C(=O)N[C@@H](CCCCC)C(=O)N2CCC[C@H]2C(=O)N[C@@H](C(C)C)C(=O)N[C@@H](C(C)C)C(=O)N[C@H](C(=O)NCCOCCOCC(=O)N[C@@H](CC(=O)O)C(=O)NCCOCCOCC(=O)NCCCCCCCCCCC(=O)O)CSCC(=O)N[C@@H](Cc2ccccc2)C(=O)N[C@@H](Cc2cccc(C)c2)C(=O)N[C@@H](CC(=O)O)C1=O` (stereo in doubt) [compound 2289] is 0.0157 µM; for `CCCCCCN1CC(=O)N[C@@H](Cc2ccc(O)cc2)C(=O)N[C@@H](CCCC)C(=O)N[C@@H](CC(N)=O)C(=O)N[C@@H](CCCNC(=N)N)C(=O)N(C)[C@@H](CCCC)C(=O)N[C@@H](CCCCC)C(=O)N2CCC[C@H]2C(=O)N[C@@H](C(C)C)C(=O)N[C@@H](CC(=O)O)C(=O)N[C@H](C(=O)NCCOCCOCC(=O)N[C@@H](CC(=O)O)C(=O)NCCOCCOCC(=O)NCCCCCCCCCCC(=O)O)CSCC(=O)N[C@@H](Cc2ccc3ccccc3c2)C(=O)N[C@@H](Cc2c[nH]c3ccccc23)C(=O)N[C@@H](CC(=O)O)C1=O` (stereo in doubt) [compound 2290] it is 0.0391 µM. The figure for `CCCCCCN1CC(=O)N[C@@H](Cc2ccc(O)cc2)C(=O)N[C@@H](CC(C)C)C(=O)N[C@@H](CC(N)=O)C(=O)N[C@@H](CCCNC(=N)N)C(=O)N[C@@H](CC(C)C)C(=O)N[C@@H](CCCCC)C(=O)N2CCC[C@H]2C(=O)N[C@@H](C(C)C)C(=O)N[C@@H](C(C)C)C(=O)N[C@H](C(=O)NCCOCCOCC(=O)N[C@@H](CC(=O)O)C(=O)NCCOCCOCC(=O)NCCCCCCCCCCC(=O)O)CSCC(=O)N[C@@H](Cc2ccccc2)C(=O)N[C@@H](Cc2ccc(O)cc2)C(=O)N[C@@H](CC(=O)O)C1=O` (stereo in doubt) [compound 2291] is 0.0174 µM; for `CCCCCCN1CC(=O)N[C@@H](Cc2ccc(O)cc2)C(=O)N[C@@H](CCCC)C(=O)N[C@@H](CC(=O)O)C(=O)N[C@@H](CCCNC(=N)N)C(=O)N[C@@H](CC(C)C)C(=O)N[C@@H](CCCCC)C(=O)N2CCC[C@H]2C(=O)N[C@@H](C(C)C)C(=O)N[C@@H](CC(N)=O)C(=O)N[C@H](C(=O)NCCOCCOCC(=O)N[C@@H](CC(=O)O)C(=O)NCCOCCOCC(=O)NCCCCCCCCCCC(=O)O)CSCC(=O)N[C@@H](Cc2ccccc2)C(=O)N[C@@H](Cc2ccc(O)cc2)C(=O)N[C@@H](CC(=O)O)C1=O` (stereo in doubt) [compound 2295] it is 0.0331 µM; for `CCCCCCN1CC(=O)N[C@@H](Cc2ccc(O)cc2)C(=O)N[C@@H](CCCC)C(=O)N[C@@H](CC(N)=O)C(=O)N[C@@H](CCCNC(N)=O)C(=O)N[C@@H](CC(C)C)C(=O)N[C@@H](CCCCC)C(=O)N2CCC[C@H]2C(=O)N[C@@H](C(C)C)C(=O)N[C@@H](CO)C(=O)N[C@H](C(=O)NCCOCCOCC(=O)N[C@@H](CC(=O)O)C(=O)NCCOCCOCC(=O)NCCCCCCCCCCC(=O)O)CSCC(=O)N[C@@H](Cc2ccc3ccccc3c2)C(=O)N[C@@H](Cc2ccc(O)cc2)C(=O)N[C@@H](CC(=O)O)C1=O` (stereo in doubt) [compound 2305] it is 0.023 µM.

Regarding `CCCCCCN1CC(=O)N[C@@H](Cc2ccc(O)cc2)C(=O)N[C@@H](CCCC)C(=O)NCC(=O)N[C@@H](CCCNC(N)=O)C(=O)N[C@@H](CC(C)C)C(=O)N[C@@H](CCCCC)C(=O)N2CCC[C@H]2C(=O)N[C@@H](C(C)C)C(=O)N[C@@H](CC(=O)O)C(=O)N[C@H](C(=O)NCCOCCOCC(=O)N[C@@H](CC(=O)O)C(=O)NCCOCCOCC(=O)NCCCCCCCCCCC(=O)O)CSCC(=O)N[C@@H](Cc2cccc(C)c2)C(=O)N[C@@H](Cc2ccc(O)cc2)C(=O)N[C@@H](CC(=O)O)C1=O` (stereo in doubt) [compound 2309], the IC50 was found to be 0.0179 µM.

With `CCCCCCN1CC(=O)N[C@@H](Cc2ccc(O)cc2)C(=O)N[C@@H](CCCC)C(=O)N[C@@H](CC(N)=O)C(=O)N[C@@H](CCCNC(N)=O)C(=O)N2Cc3ccccc3C[C@H]2C(=O)N[C@@H](CCCCC)C(=O)N2CCC[C@H]2C(=O)N[C@@H](C(C)C)C(=O)N[C@@H](CO)C(=O)N[C@H](C(=O)NCCOCCOCC(=O)N[C@@H](CC(=O)O)C(=O)NCCOCCOCC(=O)NCCCCCCCCCCC(=O)O)CSCC(=O)N[C@@H](Cc2ccccc2)C(=O)N[C@@H](Cc2c[nH]c3ccccc23)C(=O)N[C@@H](CC(=O)O)C1=O` (stereo in doubt) [compound 2311], the IC50 was 0.0284 µM. The figure for `CCCCCCN1CC(=O)N[C@@H](Cc2ccc(O)cc2)C(=O)N[C@@H](CCCC)C(=O)N[C@@H](CC(N)=O)C(=O)N[C@@H](CCCNC(=N)N)C(=O)N(C)[C@@H](CC(C)C)C(=O)N[C@@H](CCCCC)C(=O)N2CCC[C@H]2C(=O)N[C@@H](C(C)C)C(=O)N[C@@H](CO)C(=O)N[C@H](C(=O)NCCOCCOCC(=O)N[C@@H](CC(=O)O)C(=O)NCCOCCOCC(=O)NCCCCCCCCCCC(=O)O)CSCC(=O)N[C@@H](Cc2ccccc2)C(=O)N[C@@H](Cc2c[nH]c3ccccc23)C(=O)N[C@@H](CC(=O)O)C1=O` (stereo in doubt) [compound 2314] is 0.0346 µM; for `CCCCCCN1CC(=O)N[C@@H](Cc2ccc(O)cc2)C(=O)N[C@@H](CCCC)C(=O)N[C@@H](CC(N)=O)C(=O)N[C@@H](CCCNC(N)=O)C(=O)N(C)[C@@H](CCCC)C(=O)N[C@@H](CCCCC)C(=O)N2CCC[C@H]2C(=O)N[C@@H](C(C)C)C(=O)N[C@@H](CO)C(=O)N[C@H](C(=O)NCCOCCOCC(=O)N[C@@H](CC(=O)O)C(=O)NCCOCCOCC(=O)NCCCCCCCCCCC(=O)O)CSCC(=O)N[C@@H](Cc2ccccc2)C(=O)N[C@@H](Cc2c[nH]c3ccccc23)C(=O)N[C@@H](CC(=O)O)C1=O` (stereo in doubt) [compound 2317] it is 0.0183 µM; for `CCCCCCN1CC(=O)N[C@@H](Cc2ccc(O)cc2)C(=O)N[C@@H](CCCC)C(=O)N[C@@H](CC(N)=O)C(=O)N[C@@H](CCCNC(=N)N)C(=O)N(C)[C@@H](CCCC)C(=O)N[C@@H](CCCCC)C(=O)N2CCC[C@H]2C(=O)N[C@@H](C(C)C)C(=O)N[C@@H](CO)C(=O)N[C@H](C(=O)NCCOCCOCC(=O)N[C@@H](CC(=O)O)C(=O)NCCOCCOCC(=O)NCCCCCCCCCCC(=O)O)CSCC(=O)N[C@@H](Cc2ccccc2)C(=O)N[C@@H](Cc2c[nH]c3ccccc23)C(=O)N[C@@H](CC(=O)O)C1=O` (stereo in doubt) [compound 2318] it is 0.0213 µM.
